Legend:
MRGPRD = MRGPRD (Homo sapiens, UniProt Q8TDS7); conditions: cited from earlier work; for activity as MRGPRD agonists relative to β-ala: compared with β-ala
wound healing pathways = conditions: 100 mM injected twice daily for 2 days, WT C57BL/6; compared with published tape stripping RNAseq data
Description: Wild type C57BL/6 mice were injected with 100 mM β-alanine or vehicle twice daily for 2 days. Skin at the treated sites were harvested and mRNA was obtained and subjected to RNAseq. Genes with increased gene expression in the β-alanine treated group were anayzed by pathway analysis.

mast cell degranulation [1] = conditions: 5% topical, shaved flank skin twice daily for 2 days, then i.d. compound 48/80, read ten minutes later; figure values in μg per g of tissue, p<0.01
Description: Mice were then given Evans' blue dye i.v. followed by an intradermal injection of compound 48/80. Ten minutes later, the amount of Evans' blue dye present in the skin (μg·g^−1 of tissue) as an indication of the extent of mast cell degranulation was determined by skin biopsy, enzymatic digestion, and […] evaluation.

[2] = tested on: DNFB contact hypersensitivity; conditions: MRGPRD-DTR mice treated with DT (MRGPRD-ablated), same regimen
Description: Referring to FIG. 2, cohorts of C57BL/6 mice (n=5) were either pre-treated by i.d. injection of b-alanine (WT+b-ala) or vehicle (WT) on the abdomen for 2 days followed by sensitization at the same site with 0.2% DNFB (a chemical sensitizer). Five days later 0.2% DNFB was applied to the ear. The increased degree of ear swelling on the indicated day compared to ear thickness prior to application of DNFB was measured. Increased ear thickness was employed a surrogate for the amount of immune response to DNFB was measured. As a specificity control, MRGPRD-DTR mice treated with DT to ablate MRGPRD-expressing neurons (labeled MRGPRD in FIG. DD), and were treated similarly (MRGPRD and MRGPRD+b-ala).

mast cell degranulation [3] = assay: 48/80-mediated mast cell degranulation, Evan's blue dye in the skin, i.d. β-alanine pre-treatment; type: in vivo, C57BL/6 mice
Description: Compound 48/80, the condensation product of N-methyl p-methoxyphenethylamine and formaldehyde, is a well-known chemical that induces rapid mast cell degranulation and associated edema. The degree of edema in the skin is measured by the amount of Evan's blue dye in the skin. […] In mice that lack MRGPRD neurons, β-alanine had no effect on 48/80's ability to activate mast cells (compare columns 5 and 6). This is a specificity control since the neurons that express the receptor for β-alanine are absent.

Chain of MRGPRD (Q8TDS7 whole entry): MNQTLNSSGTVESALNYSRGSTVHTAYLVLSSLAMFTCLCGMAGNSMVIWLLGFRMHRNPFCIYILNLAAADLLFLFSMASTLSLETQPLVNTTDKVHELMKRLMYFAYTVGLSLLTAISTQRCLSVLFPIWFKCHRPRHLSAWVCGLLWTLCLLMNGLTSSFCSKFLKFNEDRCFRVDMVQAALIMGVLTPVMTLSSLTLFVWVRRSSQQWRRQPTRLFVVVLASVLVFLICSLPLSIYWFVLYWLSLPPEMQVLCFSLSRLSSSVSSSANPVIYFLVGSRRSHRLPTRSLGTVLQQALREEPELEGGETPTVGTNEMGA

| SMILES | activity as MRGPRD agonists relative to β-ala (MRGPRD) | pathways activated in skin (RNAseq pathway analysis) (wound healing pathways) | forskolin-stimulated cAMP production (MRGPRD; cells expressing MRGPRD) | mast cell degranulation (dermal Evan's blue dye) (mast cell degranulation [1]) | ear swelling (immune response to DNFB) [2] | Evan's blue dye in the skin (edema, mast cell degranulation) after compound 48/80 (mast cell degranulation [3]; C57BL/6 mice, i.d. pre-treatment for 2 days, then i.d. compound 48/80, FIG. 1 columns 3 and 4) | Evan's blue dye in the skin (48/80's ability to activate mast cells) (mast cell degranulation [3]; mice that lack MRGPRD neurons (specificity control), FIG. 1 columns 5 and 6) | cutaneous mast cell function (mast cell degranulation [3]; wild-type mice (summary statement of Example 1)) |
| --- | --- | --- | --- | --- | --- | --- | --- | --- |
| NCCCC(=O)O [GABA, 4-aminobutanoic acid] | significantly weaker |  |  |  |  |  |  |  |
| CC(CN)C(=O)O (stereo not drawn) [β-AIBA, 3-aminoisobutyric acid] | significantly weaker |  |  |  |  |  |  |  |
| NCCC(=O)O [β-alanine, 3-aminopropanoic acid] |  | activates wound healing pathways | decreases | suppresses | no effect | inhibited this effect | no effect | sufficient to suppress |

— patent publication US12508241B2, “Peripheral nerve agonists suppress inflammation” (University of Pittsburgh—Of the Commonwealth System of …, priority 2019, dated 2025)
